Measurements published in US7572765B2, “Conformationally constrained parathyroid hormone (PTH) analogs” (The General Hospital Corporation, priority 2001, dated 2009).
Square brackets hold non-standard residues; d marks the D form. Ends that are not written are not given here. Peptide text beside a SMILES is read from it. hArg = N=C(N)NCCCC[C@H](N)C(=O)O; Nle = CCCC[C@H](N)C(=O)O; Aib = CC(C)(N)C(=O)O

Columns and labels:
human P1R [1] = molecular target: T1, human P1R (Homo sapiens, UniProt Q03431); experiment: cAMP stimulation in HKRK-B28 cells; assay type: cell-based; settings: for cAMP EMax(obs.): basal 4.0 ± 0.1 pmole/well not subtracted
T1 construct: expressed in transfected cells; host or cells: HKRK-B28 (porcine kidney LLC-PK1, stably transfected)
T1 sequence (Q03431 27-593): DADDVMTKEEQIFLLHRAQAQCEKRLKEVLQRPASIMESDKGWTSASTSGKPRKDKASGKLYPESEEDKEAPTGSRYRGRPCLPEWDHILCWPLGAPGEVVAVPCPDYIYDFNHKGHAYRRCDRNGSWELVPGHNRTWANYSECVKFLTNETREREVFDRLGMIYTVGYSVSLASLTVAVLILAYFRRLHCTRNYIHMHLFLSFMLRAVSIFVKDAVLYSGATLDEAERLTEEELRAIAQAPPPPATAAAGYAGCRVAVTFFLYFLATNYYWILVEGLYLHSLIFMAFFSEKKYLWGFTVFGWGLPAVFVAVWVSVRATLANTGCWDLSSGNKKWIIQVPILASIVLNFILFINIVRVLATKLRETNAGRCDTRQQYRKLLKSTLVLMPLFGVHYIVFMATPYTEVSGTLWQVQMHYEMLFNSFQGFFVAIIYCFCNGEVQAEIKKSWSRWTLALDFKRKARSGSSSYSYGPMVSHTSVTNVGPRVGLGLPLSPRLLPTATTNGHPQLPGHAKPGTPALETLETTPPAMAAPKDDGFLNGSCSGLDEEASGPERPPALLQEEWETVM
Procedure: (§1) Cell Culture. The cell line HKRK-B28 (Takasu, H., et al., J. Bone Miner. Res. 14:11-20 (1999)) was derived from the porcine kidney cell line, LLC-PK1 by stable transfection with plasmid DNA encoding the human P1R and expresses ˜280,000 receptors per cell. These cells, as well as COS-7 cells and SaOS-2-B10 cells, were cultured at […] in T-75 flasks ([…]) in Dulbecco's modified Eagle's medium (DMEM) supplemented with fetal bovine serum (10%), penicillin G (20 units/ml), streptomycin sulfate (20 μg/ml) and amphotericin B (0.05 μg/ml) in a humidified atmosphere containing 5% CO2. Stock solutions of EGTA/trypsin and antibiotics were from GIBCO; fetal bovine serum was from Hyclone Laboratories (Logan, Utah). COS-7 cells sub-cultured in 24-well plates were transfected with plasmid DNA (200 ng per well) encoding the wild-type human P1R or truncated human P1R deleted for residues (24-181) (Shimizu, M., et al., J. Biol. Chem. 275:21836-21843 (2000)) that was purified by cesium chloride/ethidium bromide density gradient centrifugation, and FuGENE 6 transfection reagent (Roche Indianapolis Ind.) according to the manufacturer's recommended procedure. All cells, in 24-well plates, were treated with fresh media and shifted to 33° C. for 12 to 24 h prior to assay.
cAMP Stimulation. Stimulation of cells with peptide analogs was performed in 24-well plates. Cells were rinsed with 0.5 mL of binding buffer (50 mM Tris-HCI, […], 5 mM KCl, 2 mM CaCl2, 5% heat-inactivated horse serum, 0.5% fetal bovine serum, adjusted to pH 7.5 with HCl) and treated with 200 μL of cAMP assay buffer (Delbecco's modified Eagle's medium containing 2 mM 3-isobutyl-1-methylxanthine, 1 mg/mL bovine serum albumin, 35 mM Hepes-NaOH, pH 7.4) and 100 μL of binding buffer containing varying amounts of peptide analog (final volume=300 μL). The medium was removed after incubation for 30 to 60 minutes at room temperature, and the cells were frozen on dry ice, lysed with 0.5 mL 50 mM HCl, and refrozen ([…]). The cAMP content of the diluted lysate was determined by radioimmunoassay. The EC50 response values were calculated using nonlinear regression (see below).
(§2) Data Calculation. Calculations were performed using Microsoft® Excel. Nonlinear regression analyses of binding and cAMP dose-response data were performed using the four-parameter equation: yp=Min+[(Max−Min)/(1+(IC50/x)^slope)]. The Excel Solver function was utilized for parameter optimization, as described previously (Carter, P. H., et al., Endocrinology 140: 4972-4981 (1999); Bowen, W. P., and Jerman, J. C., Trends in Pharmacol. Sci. 16: 413-417 (1995)). Differences between paired data sets were statistically evaluated using a one-tailed Student's t-test, assuming unequal variances for the two sets.

human P1R [2] = molecular target: T1, human P1R; experiment: Competition binding in HKRK-B28 cells; settings: for Binding IC50: HKRK-B28 cells, tracer 125I-[M]PTH(1-21)amide, 4 h at 4° C., N.B. = no binding detected at 10 μm peptide
Procedure: as §1
Competition Binding. Binding reactions were performed with HKRK-B28 cells or in COS-7 cells in 24-well plates. The cells were rinsed with 0.5 mL of binding buffer, and then treated successively with 100 μL binding buffer, 100 μL of binding buffer containing various amounts of unlabeled competitor ligand, and 100 μL of binding buffer containing ca. 100,000 cpm of ^125I-[M]PTH(1-21) or ^125I-[Aib^1,3,M]PTH(1-21)} (ca. 26 fmol; final volume=300 μL). Incubations were 4 to 6 h at 4° C., at which time near equilibrium conditions were attained. Cells were then placed on ice, the binding medium was removed, and the monolayer was rinsed three times with 0.5 mL of cold binding buffer. The cells were subsequently lysed with 0.5 mL […] and counted for radioactivity. For each tracer and in each experiment, the non-specific binding was determined as the radioactivity that bound in the presence of the same unlabeled peptide at a concentration of 1 μM, and was ˜1% of total radioactivity added for each tracer. The maximum specific binding (B0) was the total radioactivity bound in the absence of competing ligand, corrected for nonspecific binding, and for each tracer, ranged from 8% to 20% of the total radioactivity added. Nonlinear regression was used to calculate binding IC50 values (see below). Scatchard transformations of homologous competition binding data derived from studies with 26 fmol of ^125I-[Aib^1,3,M]PTH(1-21) were employed for estimations of apparent equilibrium dissociation constant (kDapps) and total number of ligand binding sites (Bmax), assuming a single class of binding sites and equal affinities of the iodinated and non iodinated ligand.
as §2
The P1R-binding properties of these analogs were assayed in competition studies performed in […]. In previous studies, PTH(1-14) binding could not be detected using ^125I-PTH(1-34) and related N-terminally intact and relatively unmodified radioligands (Luck, M. D., et al., Molecular Endocrinology 13:670-680 (1999)). […]

Row | Compound | cAMP EMax(obs.) (human P1R [1]) | Binding IC50 (human P1R [2]) | EC50 (human P1R [1]) | Binding IC50 (human P1R [2]; listed as [Aib^1,3]PTH (1-9)) | binding of radiolabeled peptide to HKRK-B28 cells (in words) (human P1R [2]; direct binding of the radioligand) | stimulation of cAMP accumulation (in words) (human P1R [1])
1 | CC[C@H](C)[C@H](NC(=O)[C@H](CCC(=O)O)NC(=O)[C@H](C)NC(=O)[C@@H](NC(=O)[C@H](C)N)C(C)C)C(=O)N[C@@H](CCC(N)=O)C(=O)N[C@@H](CC(C)C)C(=O)N[C@@H](CCSC)C(=O)NC(C)(C)C(=O)N[C@@H](CCC(N)=O)C(=O)N[C@@H](CCCCNC(=N)N)C(=O)N[C@@H](C)C(=O)N[C@@H](CCCCN)C(=O)N[C@@H](Cc1c[nH]c2ccccc12)C(N)=O [Aib-9] (H-AVAEIQLM[Aib]Q[hArg]AKW-NH2) | 51 ± 8 pmole/well | N.B. |  |  |  | 
2 | CC[C@H](C)[C@H](NC(=O)[C@H](CCC(=O)O)NC(=O)[C@H](C)NC(=O)[C@@H](NC(=O)[C@H](C)N)C(C)C)C(=O)N[C@@H](CCC(N)=O)C(=O)N[C@@H](CC(C)C)C(=O)NC(C)(C)C(=O)N[C@@H](Cc1c[nH]cn1)C(=O)N[C@@H](CCC(N)=O)C(=O)N[C@@H](CCCCNC(=N)N)C(=O)N[C@@H](C)C(=O)N[C@@H](CCCCN)C(=O)N[C@@H](Cc1c[nH]c2ccccc12)C(N)=O [Aib-8] (H-AVAEIQL[Aib]HQ[hArg]AKW-NH2) | 34 ± 7 pmole/well | N.B. |  |  |  | 
3 | CC[C@H](C)[C@H](NC(=O)[C@H](CCC(=O)O)NC(=O)[C@H](C)NC(=O)[C@@H](NC(=O)[C@H](C)N)C(C)C)C(=O)N[C@@H](CCC(N)=O)C(=O)N[C@@H](CC(C)C)C(=O)N[C@@H](CCSC)C(=O)N[C@@H](Cc1c[nH]cn1)C(=O)N[C@@H](CCC(N)=O)C(=O)NC(C)(C)C(=O)N[C@@H](C)C(=O)N[C@@H](CCCCN)C(=O)N[C@@H](Cc1c[nH]c2ccccc12)C(N)=O [Aib-11] (H-AVAEIQLMHQ[Aib]AKW-NH2) | 96 ± 18 pmole/well | N.B. | 67 µM |  |  | 
4 | CSCC[C@H](NC(=O)[C@H](CC(C)C)NC(=O)[C@H](CCC(N)=O)NC(=O)C(C)(C)NC(=O)[C@H](CCC(=O)O)NC(=O)[C@H](C)NC(=O)[C@@H](NC(=O)[C@H](C)N)C(C)C)C(=O)N[C@@H](Cc1c[nH]cn1)C(=O)N[C@@H](CCC(N)=O)C(=O)N[C@@H](CCCCNC(=N)N)C(=O)N[C@@H](C)C(=O)N[C@@H](CCCCN)C(=O)N[C@@H](Cc1c[nH]c2ccccc12)C(N)=O [Aib-5] (H-AVAE[Aib]QLMHQ[hArg]AKW-NH2) | 169 ± 18 pmole/well | N.B. | 66 µM |  |  | 

More lines, main results first:

Row | cAMP EMax(obs.) (human P1R [1]) | Binding IC50 (human P1R [2]) | EC50 (human P1R [1]) | Binding IC50 (human P1R [2]; listed as [Aib^1,3]PTH (1-9)) | binding of radiolabeled peptide to HKRK-B28 cells (in words) (human P1R [2]; direct binding of the radioligand) | Compound | stimulation of cAMP accumulation (in words) (human P1R [1])
5 | 10 ± 1 pmole/well | did not bind detachably | > 10 µM | N.B. |  | CC[C@H](C)[C@H](NC(=O)[C@H](CCC(=O)O)NC(=O)C(C)(C)NC(=O)[C@@H](NC(=O)C(C)(C)N)C(C)C)C(=O)N[C@@H](CCC(N)=O)C(=O)N[C@@H](CC(C)C)C(=O)N[C@@H](CCSC)C(=O)N[C@@H](Cc1c[nH]cn1)C(N)=O [[Aib^1,3]PTH(1-9)] (H-[Aib]V[Aib]EIQLMH-NH2) | Little or no stimulation of cAMP accumulation
6 |  |  |  |  | did not bind detectably | ^125I-[Ala^3,12Nle^8Gln^10,Har^11,Trp^14,Tyr^15]PTH(1-15)amide (AVAEIQL[Nle]HQ[hArg]AKWY-NH2; also: 125I-labeled, place not given here) [reference compound] | 
